# In patent US10080366B2, “Agent for increasing sugar content in fruit” (RIKEN, priority 2012, dated 2018):
# Several values for one entry are separate records, joined by “and”; a condition that tells them apart may be missing. Equal entries are not always repeated.
# Key:
# fruits of apple = tested on: fruits of apple
# Procedure: (§1) An agent for increasing a sugar content in a fruit (containing Sorbon T-20 as a spreader/sticker at a final concentration of 200 μL/L) diluted with water to have a potassium hydrogen carbonate concentration of 10 g/L was prepared. The masses of fruits of apple and cherry tomato purchased on the market were measured. Then, the prepared agent for increasing a sugar content in a fruit was applied by spraying to the fruits. The fruits were allowed to stand still in an air-conditioned greenhouse, and the masses of the apples and cherry tomatoes were measured on the date of application (date of application: Nov. 30, 2011; date of test: Dec. 5, 2011). In addition, as a control, the masses of untreated apples and cherry tomatoes were measured in the same manner.
# (§2) The estimated transpiration ratio (%) was calculated by “the estimated amount (g) of transpiration/the mass (g) before application×100.”
# (§3) The transpiration ratio was calculated by “the estimated transpiration ratio of the target sample (treated by application of potassium hydrogen carbonate or untreated)/the estimated transpiration ratio of the untreated sample.”
# fruits of cherry tomato = tested on: fruits of cherry tomato
# Procedure: as §1, §2, §3
smiles,measurement,setting,value
"O=C([O-])O.[K+] [Potassium hydrogen carbonate, potassium hydrogen carbonate]",Transpiration ratio (treated/untreated),fruits of apple; 10 g/L,1.65
same,Mass (g) on date of test,"fruits of apple; 10 g/L, Dec. 5",263.69 g and 274.65 g
same,Estimated amount (g) of transpiration,"fruits of apple; 10 g/L, Nov. 30 to Dec. 5",9.15 g and 11.66 g
same,Estimated transpiration ratio (%),"fruits of apple; 10 g/L, Nov. 30 to Dec. 5",3.35% and 3.72%
same,Estimated transpiration ratio (average) (%),"fruits of apple; 10 g/L, average of two apples",3.54%
same,Mass (g) before application,fruits of apple; Nov. 30,272.84 g and 286.31 g
same,Transpiration ratio (treated/untreated),fruits of cherry tomato; 10 g/L,1.93
same,Mass (g) on date of test,"fruits of cherry tomato; 10 g/L, Dec. 5",193.30 g
same,Estimated amount (g) of transpiration,"fruits of cherry tomato; 10 g/L, Nov. 30 to Dec. 5",21.75 g
same,Estimated transpiration ratio (%),"fruits of cherry tomato; 10 g/L, Nov. 30 to Dec. 5",10.12%
same,Mass (g) before application,fruits of cherry tomato; Nov. 30,215.05 g
